Results from the NIST ThermoML archive (doi:10.1016/j.jct.2015.06.024).
± gives the expanded uncertainty stated by the source.

Experiment: mn = molality of the nth substance listed, in mol/kg
Settings: 84.5 kPa, Liquid; for speed of sound: Frequency=3 MHz, Sing-around technique in a fixed-path interferometer; for mass density: Vibrating tube method

CCO [ethanol] + O
Settings	mass density, 288.15 K [kg/m3]	mass density, 293.15 K [kg/m3]	mass density, 298.15 K [kg/m3]	mass density, 303.15 K [kg/m3]	mass density, 308.15 K [kg/m3]	speed of sound, 288.15 K [m/s]	speed of sound, 293.15 K [m/s]	speed of sound, 298.15 K [m/s]	speed of sound, 303.15 K [m/s]	speed of sound, 308.15 K [m/s]
m1 = 0.02159	998.9 ± 0.11	998.003 ± 0.11	996.845 ± 0.11	995.446 ± 0.11	993.829 ± 0.11	1467.4 ± 1.2	1483.4 ± 1.2	1497.5 ± 1.2	1509.8 ± 1.2	1520.4 ± 1.2
m1 = 0.04347	998.707 ± 0.11	997.81 ± 0.11	996.654 ± 0.11	995.257 ± 0.11	993.639 ± 0.11	1468.2 ± 1.2	1484.2 ± 1.2	1498.2 ± 1.2	1510.5 ± 1.2	1521 ± 1.2
m1 = 0.06495	998.526 ± 0.11	997.632 ± 0.11	996.474 ± 0.11	995.076 ± 0.11	993.46 ± 0.11	1469.1 ± 1.2	1485 ± 1.2	1498.9 ± 1.2	1511.1 ± 1.2	1521.6 ± 1.2
m1 = 0.08646	998.318 ± 0.11	997.424 ± 0.11	996.265 ± 0.11	994.87 ± 0.11	993.243 ± 0.11	1470 ± 1.2	1485.8 ± 1.2	1499.7 ± 1.2	1511.7 ± 1.2	1522.2 ± 1.2
m1 = 0.1087	998.132 ± 0.11	997.24 ± 0.11	996.081 ± 0.11	994.683 ± 0.11	993.05 ± 0.11	1470.8 ± 1.2	1486.5 ± 1.2	1500.4 ± 1.2	1512.4 ± 1.2	1522.8 ± 1.2
m1 = 0.1306	997.942 ± 0.11	997.051 ± 0.11	995.892 ± 0.11	994.494 ± 0.11	992.873 ± 0.11	1471.7 ± 1.2	1487.3 ± 1.2	1501.1 ± 1.2	1513 ± 1.2	1523.3 ± 1.2
m1 = 0.1749	997.562 ± 0.11	996.671 ± 0.11	995.508 ± 0.11	994.111 ± 0.11	992.498 ± 0.11	1473.4 ± 1.2	1488.9 ± 1.2	1502.5 ± 1.2	1514.2 ± 1.2	1524.4 ± 1.2
m1 = 0.2188	997.195 ± 0.11	996.303 ± 0.11	995.144 ± 0.11	993.747 ± 0.11	992.123 ± 0.11	1475 ± 1.2	1490.4 ± 1.2	1503.8 ± 1.2	1515.5 ± 1.2	1525.5 ± 1.2
